Measured values as given in paper PMC8835363, “Arachidin-1, a Prenylated Stilbenoid from Peanut, Induces Apoptosis in Triple-Negative Breast Cancer Cells” (International Journal of Molecular Sciences, 2022).
Where two headings read alike, the source gives them in different places.

Key:
[1] = system: MDA-MB-231 cells; assay: RealTime-Glo MT cell viability (cytotoxicity) assay; type: cell-based, human; details: MDA-MB-231; for IC50: Homo sapiens
Procedure: (§1) The cytotoxicity of RES, A-1, and A-3 was measured using the RealTime-Glo^TM MT Cell Viability Assay (Promega, Madison, WI, USA). The cells (10,000 cells/well) were seeded into 96-well plates. […] Cells with 0.1% DMSO (ATCC; Manassas, VA, USA) were included as a control. Luminescence was measured every 12 h for 72 total hours in a Cytation^TM 5 (BioTek, Winooski, VT, USA) plate reader. All experiments were performed in triplicates.

[2] = system: MDA-MB-436 cells; assay: as above; type: cell-based, human; details: MDA-MB-436
Procedure: as §1

[3] = system: MCF-7 cells; design: method as in PMID 32721999, PMID 33643572; details: cited from earlier work
[4] = system: MDA-MB-231; design: method as in PMID 32721999, PMID 33643572; details: 24 h treatment, MTT assay; cited from earlier work
[5] = system: human leukemia HL-60 cell line; design: method as in PMID 21067217; details: 72 h treatment; cited from earlier work
[6] = system: UDP-glucuronosyltransferases; details: in vitro metabolism; cited from earlier work
[7] = MDA-MB-231, 24 h, 24 h, in Figure 2 panels
[8] = MDA-MB-231, 24 h, 24 h of treatment
[9] = MDA-MB-231, 48 h, 48 h of treatment
[10] = MDA-MB-231, 72 h, 72 h of treatment
[11] = Homo sapiens, MDA-MB-436, 24 h, 24 h
[12] = Homo sapiens, MDA-MB-436, 24 h, 24 h, in Figure 2 panels
[13] = Homo sapiens, MDA-MB-436, 48 h, 48 h
[14] = Homo sapiens, MDA-MB-436, 72 h, 72 h

Row | SMILES | IC50 [1, 7] [µM] | IC50 [1, 8] [µM] | IC50 ([1]; MDA-MB-231, 48 h, 48 h, in Figure 2 panels) [µM] | IC50 [1, 9] [µM] | IC50 [1, 10] [µM] | IC50 [2, 11] [µM] | IC50 [2, 12] [µM] | IC50 [2, 13] [µM] | IC50 [2, 14] [µM] | IC50 ([3]; 24 h treatment) [µM] | IC50 ([3]; 48 h treatment) [µM] | IC50 [4] [µM] | IC50 [5] [µM] | growth inhibition at low concentrations ([1]; 0.01-10 µM, 72 h) | growth inhibition at low concentrations ([2]; 0.01-10 µM, 72 h) | IC50 ([2]; 72 h) [µM] | glucuronidated products compared to non-prenylated analogs piceatannol and RES [6]
1 | Oc1ccc(/C=C/c2cc(O)cc(O)c2)cc1 [RES, resveratrol, reference compound] | 6.27 | 32.1 | 11.5 | 6.54 | 10.8 | 37.5 | 9.16 | 23.7 | 15.7 | 131 | 83.9 | 144 | 17.6 |  |  |  | 
2 | CC(C)/C=C/c1c(O)cc(/C=C/c2ccc(O)cc2)cc1O [A-3, arachidin-3] | 9.51 | 18.7 |  | 16.2 | 18.7 | 11 | 10.9 | 16.7 | 19.8 |  |  |  | 18.9 | no growth inhibition below 10 µM | no growth inhibition below 10 µM | 19.8 | lower glucuronidated products
